Measured values as given in patent US7745656B2, “Stable no-delivering compounds” (Duke University, priority 1998, dated 2010).

Test system: E. coli cells (pTC 190)
Assay: Bacteriostatic test: nitrosylated compound solution sprayed onto E. coli culture plates
Type: cell-based
Procedure: Nitrosated 3-mercapto-1,2-propanediol was prepared with TBN bed in the Example 1. The nitrosylated compound was dissolved in 10 mL of deionized water (0.16 M) that had been passed through a CHELEX 100 column and bubbled with argon for 30 minutes. The resulting solution was red.
E. coli cells (pTC 190) were plated onto the culture plates and grown overnight at 40° C. The E. coli cells contained a plasmid encoding for ampicillin resistance. The solution was then sprayed onto a culture plate (LB/Amp/Glucose).
This plate was then sprayed with the nitrosylated compound solution at the 24th hour.

O=NSCC(O)CO (stereo not drawn) [nitrosylated 3-mercapto-1,2-propanediol]
Bacterial growth on culture plate sprayed with the compound solution (0.16 M in deionized water, compound prepared with TBN, LB/Amp/Glucose plate, read after 24 hours): growth of a few colonies, all localized on one side of the plate | Bacterial growth on plate with an established E. coli lawn, sprayed at the 24th hour (0.16 M solution sprayed on a continuous lawn, read after another 24 hours): lawn of colonies that was approximately as dense as prior to application | Overall antibacterial result (conclusion of Example 3): bacteriostatic
